Assays:
Assay in all cases: KiNativ kinome profiling in PANC-1 lysate
Format in all cases: binding
[1] = target: T1, TEC (Homo sapiens, UniProt P42680); details: ATP Loop
T1 construct: endogenous in cells; host or cells: PANC-1 cell lysate
Method in brief: (§1)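 PANC-1 lysates were incubated with 5 μM inhibitor or DMSO, then labeled with a desthiobiotin-ATP acyl-phosphate probe that biotinylates conserved kinase lysines. Tryptic peptides were streptavidin-enriched and quantified by LC-MS/MS, reported as % change in MS signal from duplicate treated and duplicate control samples.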

[2] = target: T2, SMG1 (Homo sapiens, UniProt Q96Q15); details: ATP
T2 construct: endogenous in cells; host or cells: PANC-1 cell lysate
T2 sequence (Q96Q15 whole entry): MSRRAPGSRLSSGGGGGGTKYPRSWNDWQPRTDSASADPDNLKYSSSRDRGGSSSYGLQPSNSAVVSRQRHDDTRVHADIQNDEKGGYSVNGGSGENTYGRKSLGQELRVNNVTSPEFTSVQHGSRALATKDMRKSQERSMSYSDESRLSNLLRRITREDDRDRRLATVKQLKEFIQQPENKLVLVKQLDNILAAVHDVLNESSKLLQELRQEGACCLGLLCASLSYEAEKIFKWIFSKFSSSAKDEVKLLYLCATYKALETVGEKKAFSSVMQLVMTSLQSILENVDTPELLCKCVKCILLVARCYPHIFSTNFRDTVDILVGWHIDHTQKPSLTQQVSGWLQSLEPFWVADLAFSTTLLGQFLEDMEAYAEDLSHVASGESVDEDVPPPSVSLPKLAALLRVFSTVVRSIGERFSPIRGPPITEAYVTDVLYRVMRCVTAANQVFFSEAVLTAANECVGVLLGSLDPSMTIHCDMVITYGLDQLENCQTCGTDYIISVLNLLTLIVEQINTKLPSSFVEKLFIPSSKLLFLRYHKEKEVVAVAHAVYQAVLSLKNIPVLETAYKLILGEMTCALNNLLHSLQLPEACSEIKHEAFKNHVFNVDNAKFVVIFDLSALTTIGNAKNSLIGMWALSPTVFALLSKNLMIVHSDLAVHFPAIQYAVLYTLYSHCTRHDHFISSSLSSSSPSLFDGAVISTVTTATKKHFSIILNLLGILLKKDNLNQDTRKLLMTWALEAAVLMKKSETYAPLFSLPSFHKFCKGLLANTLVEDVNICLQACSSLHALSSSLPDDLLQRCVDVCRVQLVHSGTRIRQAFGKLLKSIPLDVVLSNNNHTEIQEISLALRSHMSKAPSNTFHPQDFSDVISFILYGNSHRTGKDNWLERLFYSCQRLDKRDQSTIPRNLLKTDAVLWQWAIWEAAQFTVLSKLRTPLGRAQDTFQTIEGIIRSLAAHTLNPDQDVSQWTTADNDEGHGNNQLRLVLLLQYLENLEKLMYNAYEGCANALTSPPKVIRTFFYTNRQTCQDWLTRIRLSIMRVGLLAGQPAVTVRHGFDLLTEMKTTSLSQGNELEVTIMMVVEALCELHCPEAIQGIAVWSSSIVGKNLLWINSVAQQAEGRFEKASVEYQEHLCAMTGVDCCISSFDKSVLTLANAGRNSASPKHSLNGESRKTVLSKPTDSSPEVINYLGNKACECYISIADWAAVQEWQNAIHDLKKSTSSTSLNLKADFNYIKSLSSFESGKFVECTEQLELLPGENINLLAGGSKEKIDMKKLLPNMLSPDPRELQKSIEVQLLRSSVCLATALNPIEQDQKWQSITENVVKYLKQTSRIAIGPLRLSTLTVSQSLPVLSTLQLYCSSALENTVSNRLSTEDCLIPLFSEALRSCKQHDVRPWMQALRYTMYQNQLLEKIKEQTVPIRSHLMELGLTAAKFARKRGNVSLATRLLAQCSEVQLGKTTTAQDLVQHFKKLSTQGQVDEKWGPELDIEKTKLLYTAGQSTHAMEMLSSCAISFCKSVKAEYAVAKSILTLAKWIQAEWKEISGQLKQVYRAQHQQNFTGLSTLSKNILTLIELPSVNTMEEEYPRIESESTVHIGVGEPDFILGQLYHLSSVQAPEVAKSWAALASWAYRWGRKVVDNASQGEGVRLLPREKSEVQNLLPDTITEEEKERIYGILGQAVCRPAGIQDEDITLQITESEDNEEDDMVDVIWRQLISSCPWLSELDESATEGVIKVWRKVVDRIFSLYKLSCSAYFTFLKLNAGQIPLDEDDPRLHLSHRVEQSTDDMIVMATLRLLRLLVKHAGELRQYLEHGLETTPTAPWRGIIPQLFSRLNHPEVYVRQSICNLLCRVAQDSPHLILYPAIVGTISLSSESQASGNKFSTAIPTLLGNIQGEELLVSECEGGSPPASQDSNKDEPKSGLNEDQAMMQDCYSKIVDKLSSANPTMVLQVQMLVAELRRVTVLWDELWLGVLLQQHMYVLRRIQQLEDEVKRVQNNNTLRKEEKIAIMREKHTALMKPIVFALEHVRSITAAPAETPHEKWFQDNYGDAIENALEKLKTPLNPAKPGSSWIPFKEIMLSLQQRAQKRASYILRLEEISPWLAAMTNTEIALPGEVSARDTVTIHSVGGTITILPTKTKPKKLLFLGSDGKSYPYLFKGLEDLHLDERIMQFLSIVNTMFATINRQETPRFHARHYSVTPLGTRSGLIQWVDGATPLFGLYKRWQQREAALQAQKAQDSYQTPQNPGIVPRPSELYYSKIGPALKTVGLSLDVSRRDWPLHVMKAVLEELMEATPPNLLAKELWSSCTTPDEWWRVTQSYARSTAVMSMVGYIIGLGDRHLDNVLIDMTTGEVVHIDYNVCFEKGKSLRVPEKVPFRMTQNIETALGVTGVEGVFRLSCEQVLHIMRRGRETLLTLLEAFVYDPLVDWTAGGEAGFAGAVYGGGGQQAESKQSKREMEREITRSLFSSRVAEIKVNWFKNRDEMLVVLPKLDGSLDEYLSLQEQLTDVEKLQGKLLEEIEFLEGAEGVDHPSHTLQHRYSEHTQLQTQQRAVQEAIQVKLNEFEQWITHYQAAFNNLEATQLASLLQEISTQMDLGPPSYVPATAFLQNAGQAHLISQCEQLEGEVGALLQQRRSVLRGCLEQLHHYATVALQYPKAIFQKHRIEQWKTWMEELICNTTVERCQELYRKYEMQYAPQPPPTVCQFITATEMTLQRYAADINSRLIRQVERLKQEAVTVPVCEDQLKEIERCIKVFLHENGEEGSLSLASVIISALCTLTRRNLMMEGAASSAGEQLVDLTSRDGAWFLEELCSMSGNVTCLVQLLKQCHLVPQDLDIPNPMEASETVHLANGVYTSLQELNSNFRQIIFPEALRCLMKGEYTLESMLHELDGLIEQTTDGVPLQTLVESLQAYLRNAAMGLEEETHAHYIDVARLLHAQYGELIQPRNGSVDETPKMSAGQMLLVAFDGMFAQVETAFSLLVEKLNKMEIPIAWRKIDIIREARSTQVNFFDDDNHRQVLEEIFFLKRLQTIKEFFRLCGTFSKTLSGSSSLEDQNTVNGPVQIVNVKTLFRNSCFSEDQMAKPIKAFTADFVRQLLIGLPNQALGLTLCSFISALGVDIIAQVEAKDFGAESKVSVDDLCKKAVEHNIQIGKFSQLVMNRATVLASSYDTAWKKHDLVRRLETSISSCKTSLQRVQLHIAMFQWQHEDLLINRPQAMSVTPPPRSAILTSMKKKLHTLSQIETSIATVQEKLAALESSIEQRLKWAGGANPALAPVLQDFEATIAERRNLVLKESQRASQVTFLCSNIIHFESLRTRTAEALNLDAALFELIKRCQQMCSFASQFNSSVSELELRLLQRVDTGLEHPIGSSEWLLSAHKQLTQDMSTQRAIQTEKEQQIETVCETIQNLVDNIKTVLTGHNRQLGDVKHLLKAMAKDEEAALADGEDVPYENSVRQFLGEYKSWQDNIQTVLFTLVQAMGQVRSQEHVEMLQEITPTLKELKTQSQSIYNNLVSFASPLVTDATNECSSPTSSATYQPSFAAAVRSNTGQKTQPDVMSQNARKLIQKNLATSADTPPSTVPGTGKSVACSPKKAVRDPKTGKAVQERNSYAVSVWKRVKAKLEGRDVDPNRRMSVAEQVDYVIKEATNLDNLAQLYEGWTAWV
Method in brief: as §1

[3] = target: T3, ULK3 (Homo sapiens, UniProt Q6PHR2); details: Lys1
T3 construct: endogenous in cells; host or cells: PANC-1 cell lysate
Method in brief: as §1

[4] = target: T4, RSK2 domain2 (Homo sapiens, UniProt P51812); details: Lys2
T4 construct: endogenous in cells; host or cells: PANC-1 cell lysate
T4 sequence (P51812 whole entry, the tested form may be a part): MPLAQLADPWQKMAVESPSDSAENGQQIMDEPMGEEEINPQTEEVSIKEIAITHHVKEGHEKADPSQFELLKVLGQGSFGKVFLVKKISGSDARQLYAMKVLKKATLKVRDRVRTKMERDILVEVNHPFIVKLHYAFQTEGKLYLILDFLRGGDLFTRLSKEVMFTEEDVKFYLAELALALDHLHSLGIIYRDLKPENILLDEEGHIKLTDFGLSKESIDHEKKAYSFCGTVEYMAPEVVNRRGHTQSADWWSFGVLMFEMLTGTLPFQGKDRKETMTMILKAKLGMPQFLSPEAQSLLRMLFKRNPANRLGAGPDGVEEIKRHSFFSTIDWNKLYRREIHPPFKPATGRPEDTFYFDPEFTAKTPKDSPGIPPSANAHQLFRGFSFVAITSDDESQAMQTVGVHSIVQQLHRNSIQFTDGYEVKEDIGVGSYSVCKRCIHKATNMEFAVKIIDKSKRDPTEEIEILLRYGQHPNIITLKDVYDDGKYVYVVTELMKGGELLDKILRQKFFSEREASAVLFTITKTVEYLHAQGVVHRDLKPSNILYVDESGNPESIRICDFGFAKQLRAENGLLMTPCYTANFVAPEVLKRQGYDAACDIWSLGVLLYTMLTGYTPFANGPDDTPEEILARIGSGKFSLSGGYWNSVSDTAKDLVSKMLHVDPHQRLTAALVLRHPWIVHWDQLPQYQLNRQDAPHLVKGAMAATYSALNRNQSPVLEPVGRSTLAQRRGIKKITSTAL
Method in brief: as §1

[5] = tested on: Wnk1, Wnk2, Wnk4; details: 5 µM; ATP Loop; IGDLGLATLKR
Method in brief: as §1

[6] = target: T5, PRP4 (Homo sapiens, UniProt Q13523); details: Lys2
T5 construct: endogenous in cells; host or cells: PANC-1 cell lysate
Method in brief: as §1

[7] = target: T6, EphA2 (Homo sapiens, UniProt P29317); details: ATP Loop
T6 construct: endogenous in cells; host or cells: PANC-1 lysate
Method in brief: as §1

[8] = target: T7, RSK2 domain1 (Homo sapiens, UniProt P51812)
T7 construct: endogenous in cells; host or cells: PANC-1 cell lysate
T7 sequence (P51812 whole entry, the tested form may be a part): as above
Method in brief: as §1

[9] = target: T8, AurB (Homo sapiens, UniProt Q96GD4); details: Lys1
T8 construct: endogenous in cells; host or cells: PANC-1 cell lysate
Method in brief: as §1

[10] = target: T9, PIP4K2B (Homo sapiens, UniProt P78356); details: ATP
T9 construct: endogenous in cells; host or cells: PANC-1 cell lysate
Method in brief: as §1

[11] = target: T10, NDR1 (Homo sapiens, UniProt Q15208)
T10 construct: endogenous in cells; host or cells: PANC-1
T10 sequence (Q15208 whole entry): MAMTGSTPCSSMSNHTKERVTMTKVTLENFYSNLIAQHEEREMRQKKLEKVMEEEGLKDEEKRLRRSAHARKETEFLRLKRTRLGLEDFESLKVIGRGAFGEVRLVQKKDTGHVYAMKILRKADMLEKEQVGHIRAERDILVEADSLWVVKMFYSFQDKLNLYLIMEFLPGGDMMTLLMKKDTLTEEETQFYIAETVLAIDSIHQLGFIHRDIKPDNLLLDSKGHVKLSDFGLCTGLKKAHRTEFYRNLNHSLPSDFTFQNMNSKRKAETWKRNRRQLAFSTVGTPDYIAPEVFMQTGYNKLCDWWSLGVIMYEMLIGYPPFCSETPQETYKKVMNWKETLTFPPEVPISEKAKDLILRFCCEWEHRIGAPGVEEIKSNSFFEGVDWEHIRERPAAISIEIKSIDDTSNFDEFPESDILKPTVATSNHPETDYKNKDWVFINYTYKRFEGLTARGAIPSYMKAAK
Method in brief: as §1

[12] = target: T11, MLK3 (Homo sapiens, UniProt Q16584); details: Lys2
T11 construct: endogenous in cells; host or cells: PANC-1
Method in brief: as §1

[13] = target: T12, PI4KB (Homo sapiens, UniProt Q9UBF8); details: ATP
T12 construct: endogenous in cells; host or cells: PANC-1 cell lysate
Method in brief: as §1

[14] = target: T13, Erk5 (Homo sapiens, UniProt Q13164); details: Lys2
T13 construct: endogenous in cells; host or cells: PANC-1 lysate
Method in brief: as §1

[15] = target: T14, STLK5 (Homo sapiens, UniProt Q7RTN6)
T14 construct: endogenous in cells; host or cells: PANC-1 cell lysate
Method in brief: as §1

[16] = target: T15, PFTAIRE1 (Homo sapiens, UniProt O94921); details: Lys1
T15 construct: endogenous in cells; host or cells: PANC-1 cell lysate
Method in brief: as §1

[17] = target: T16, TYK2 domain2 (Homo sapiens, UniProt P29597); details: ATP Loop
T16 construct: endogenous in cells; host or cells: PANC-1 cell lysate
Method in brief: as §1

[18] = target: T17, Wee1 (Homo sapiens, UniProt P30291); details: Lys2
T17 construct: endogenous in cells; host or cells: PANC-1 cell lysate
Method in brief: as §1

[19] = target: T18, AXL (Homo sapiens, UniProt P30530); details: Activation Loop
T18 construct: endogenous in cells; host or cells: PANC-1 cell lysate
Method in brief: as §1

[20] = target: T19, RSK1 domain2 (Homo sapiens, UniProt Q15418); details: Lys2
T19 construct: endogenous in cells; host or cells: PANC-1 cell lysate
Method in brief: as §1

[21] = target: T20, LYN (Homo sapiens, UniProt P07948)
T20 construct: endogenous in cells; host or cells: PANC-1 cell lysate
Method in brief: as §1

[22] = tested on: KSR1, KSR2; details: 5 µM; ATP Loop; SKNVFYDNGK
Method in brief: as §1

[23] = tested on: CaMK2a, CaMK2b, CaMK2d, CaMK2g; details: 5 µM; Lys2; DLKPENLLLASK
Method in brief: as §1

[24] = target: T21, RSK1 domain1 (Homo sapiens, UniProt Q15418); details: ATP Loop
T21 construct: endogenous in cells; host or cells: PANC-1 cell lysate
Method in brief: as §1

[25] = target: T22, GCK (Homo sapiens, UniProt Q12851)
T22 construct: we opted to conduct a kinome screen (KiNativ) in PANC-1 cell lysates; endogenous in cells; host or cells: PANC-1 cell lysate
Method in brief: as §1

[26] = target: T23, SRPK1 (Homo sapiens, UniProt Q96SB4); details: Lys2
T23 construct: endogenous in cells; host or cells: PANC-1 cell lysate
Method in brief: as §1

In the case of Cn1cc(-c2cnc3ccc(NC(=O)Nc4ccc(F)c(C(F)(F)F)c4)cc3n2)cn1 [51-106, 1-(4-Fluoro-3-(trifluoromethyl)phenyl)-3-(3-(1-methyl-1H-pyrazol-4-yl)quinoxalin-6-yl)urea], the inhibition at 5 µM [1] is reported as 20.1%, the “% Inhibition” value ([2]; 5 µM, DTVTIHSVGGTITILPTKTKPK) is reported as “NB (NB = No Binding (≤ 0))” and the inhibition at 5 µM ([2]; […]) is reported as no more than 0%. For the same compound, the inhibition at 5 µM [3] was no more than 0%, the inhibition at 5 µM [4] was 5.7% and the “% Inhibition” value [5] was 4.6%. For the same compound, the inhibition at 5 µM [6] was no more than 0%, the inhibition at 5 µM [7] was no more than 0% and the inhibition at 5 µM ([8]; ATP Loop, LTDFGLSKESIDHEKK) was no more than 0%. For the same compound, the inhibition at 5 µM ([8]; Lys1, QLYAMKVLK) was 23.6%, the inhibition at 5 µM [9] was no more than 0% and the inhibition at 5 µM [10] was no more than 0%. The inhibition at 5 µM ([11]; Lys1, DTGHVYAMKILR) was 6%, the inhibition at 5 µM ([11]; Lys2, DIKPDNLLLDSK) was no more than 0% and the inhibition at 5 µM [12] was 1.3%. It also gave an inhibition at 5 µM ([13]; LLSVIVKCGDDLRQELLAFQVLK) of no more than 0%, an inhibition at 5 µM ([13]; VPHTQAVVLNSKDK) of 3.9% and an inhibition at 5 µM [14] of 11.6%. The “% Inhibition” value ([15]; 5 µM, Lys2, SVKASHILISVDGK) was “NB (NB = No Binding (≤ 0))”, the inhibition at 5 µM ([15]; ATP Loop, […]) was no more than 0% and the inhibition at 5 µM [16] was 7.7%. The inhibition at 5 µM [17] was no more than 0%, the inhibition at 5 µM [18] was 2.2% and the inhibition at 5 µM [19] was no more than 0%. It also gave an inhibition at 5 µM [20] of 6.9%, an inhibition at 5 µM ([21]; ATP Loop, EGAKFPIKWTAPEAINFGCFTIK) of no more than 0% and an inhibition at 5 µM ([21]; Lys1, VAVKTLKPGTMSVQAFLEEANLMK) of 1.8%. The “% Inhibition” value [22] was 8.8%, the “% Inhibition” value [23] was “NB (NB = No Binding (≤ 0))” and the inhibition at 5 µM [24] was no more than 0%. For the same compound, the inhibition at 5 µM ([25]; Lys1, DTVTSELAAVKIVK) was 18.3%, the inhibition at 5 µM ([25]; Lys2, DIKGANLLLTLQGDVK) was 3.9% and the inhibition at 5 µM [26] was 4.4%.

From publication PMC12073402, “A Selective MAP3K1 Inhibitor Facilitates Discovery of NPM1 as a Member of the Network” (Molecules, 2025)
